Measurements reported in PMC6372667 (Experimental & Molecular Medicine, 2019).
Like-named read-outs stand apart in the source and are kept apart here.

Experiments:
[1] = test system: NIH3T3 mouse embryo fibroblasts; assay: MTT cytotoxicity assay, NIH3T3; assay type: cell-based; conditions: 24 h
Description: (§1) Cytotoxicity was assessed using the MTT assay. Briefly, the cells were seeded into a 96-well plate at a density of 1×10^5 cells per well in 100 µL of corresponding media and incubated at 37 °C in an incubator under 5% CO2 tension for 24 h. The culture media were then replaced with 100 µL of fresh serum-free media in the presence of varied concentrations of pterosin derivatives, and cells were incubated for an additional 24 h. The control was treated with an equal amount of DMSO present in the assay for a 5 mM concentration. Then, 100 µL of MTT solution (0.5 mg/mL in Phosphate Buffered Saline (PBS)) was added to each culture. To measure the proportion of surviving cells, the media were replaced with 100 µL of DMSO 2 h after the administration of MTT solution. The absorbance was measured at 570 nm using a spectrophotometric plate reader (Molecular Devices, Sunnyvale, CA, USA).

B16F10 mouse melanoma = assay: MTT cytotoxicity assay, B16F10; assay type: cell-based; conditions: 24 h
Description: as §1

[2] = target: BACE1 (human recombinant β-secretase) (Homo sapiens, UniProt P56817); assay: Kinetic analysis of BACE1 inhibition (Dixon and Lineweaver−Burk plots); assay type: biochemical; conditions: for Inhibition type BACE1: Dixon and Lineweaver−Burk plots
BACE1 (human recombinant β-secretase), sequence (P56817 46-501): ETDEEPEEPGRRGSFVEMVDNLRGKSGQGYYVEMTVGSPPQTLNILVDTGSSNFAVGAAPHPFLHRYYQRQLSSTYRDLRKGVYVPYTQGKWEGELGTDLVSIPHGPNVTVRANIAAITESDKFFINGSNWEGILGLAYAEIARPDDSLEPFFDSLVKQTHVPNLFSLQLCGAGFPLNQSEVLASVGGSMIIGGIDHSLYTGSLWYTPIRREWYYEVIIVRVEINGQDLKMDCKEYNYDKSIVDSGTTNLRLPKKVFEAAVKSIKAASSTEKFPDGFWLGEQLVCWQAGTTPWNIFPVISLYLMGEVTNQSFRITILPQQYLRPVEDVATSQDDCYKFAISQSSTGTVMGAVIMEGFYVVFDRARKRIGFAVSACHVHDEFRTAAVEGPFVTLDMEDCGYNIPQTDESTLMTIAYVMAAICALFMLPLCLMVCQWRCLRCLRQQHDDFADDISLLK
Description: (§2) The Ki was determined by interpretation of the Dixon plot, with the value of the x-axis intercept taken as −Ki.
Dixon plots for BACE1 inhibition by pterosin derivatives.
Dixon plots for BACE1 inhibition by pteroside derivatives.

horse serum BChE [3] = target: T1, horse serum BChE (Equus caballus, UniProt P81908); assay: Kinetic analysis of BChE inhibition (Dixon and Lineweaver−Burk plots); assay type: biochemical; conditions: for Inhibition type BChE: Dixon and Lineweaver−Burk plots
T1 construct: horse serum BChE (EC 3.1.1.8); purchased Sigma-Aldrich Co; host or cells: horse serum
T1 sequence (P81908 whole entry): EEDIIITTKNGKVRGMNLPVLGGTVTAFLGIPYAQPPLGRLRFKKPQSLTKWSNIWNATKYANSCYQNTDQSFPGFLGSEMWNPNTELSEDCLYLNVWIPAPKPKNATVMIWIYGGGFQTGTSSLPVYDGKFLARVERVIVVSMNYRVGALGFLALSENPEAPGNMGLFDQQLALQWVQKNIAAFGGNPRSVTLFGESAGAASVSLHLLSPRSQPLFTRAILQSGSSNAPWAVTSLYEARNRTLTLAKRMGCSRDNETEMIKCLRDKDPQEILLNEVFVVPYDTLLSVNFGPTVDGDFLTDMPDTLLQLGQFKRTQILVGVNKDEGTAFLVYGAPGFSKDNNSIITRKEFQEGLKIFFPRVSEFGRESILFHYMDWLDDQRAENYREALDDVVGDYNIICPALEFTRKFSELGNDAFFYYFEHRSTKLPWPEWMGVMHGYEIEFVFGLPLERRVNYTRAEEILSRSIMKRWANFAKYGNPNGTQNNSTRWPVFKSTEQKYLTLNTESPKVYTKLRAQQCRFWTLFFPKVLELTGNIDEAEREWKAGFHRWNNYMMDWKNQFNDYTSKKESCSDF
Description: as §2
Dixon plots for BChE inhibition by pterosin derivatives. (2S,3R)-Pterosin C (A), (2R,3R)-pterosin C (B), and (2R)-pterosin B (C) were tested in the presence of substrate concentrations of 0.2 mM (●), 0.4 mM (○), and 0.8 mM (▼).
Dixon plots for BChE inhibition by pteroside derivatives. (2R)-pteroside B (A), (2R,3R)-pteroside C (B), and (3S)-pteroside D (C) were tested in the presence of substrate concentrations of 0.2 mM (●), 0.4 mM (○), and 0.8 mM (▼). Lineweaver-Burk plots for BChE inhibition were generated with inhibitor concentrations of 0 µM (Δ), 4 µM (▼), 20 µM (○), and 100 µM (●) for (2R)-pteroside B (D); 0 µM (Δ), 0.8 µM (▼), 4 µM (○), and 20 µM (●) for (2R,3R)-pteroside C (E) and (3S)-pteroside D (F).

[4] = test system: SH-SY5Y human neuroblastoma; assay: MTT cytotoxicity assay, SH-SY5Y; assay type: cell-based; conditions: 24 h
Description: as §1

horse serum BChE [5] = target: T1, horse serum BChE; assay: In vitro cholinesterase enzyme assay (Ellman), BChE; assay type: biochemical
Excerpt: BACE1 (human recombinant β-secretase) ([…]) and the BACE1 FRET (fluorescence resonance energy transfer) assay kit Red were purchased from ThermoFisher Scientific (P2985; Waltham, MA, USA). […] For the cell culture experiment, Dulbecco’s modified Eagle’s medium (DMEM), Opti-MEM, fetal bovine serum (FBS), and penicillin/streptomycin were obtained from Capricorn Scientific (Ebsdorfergrund, Germany). β-secretase inhibitor III (β-SI) was purchased from Calbiochem (Darmstadt, Germany). The protease inhibitor mixture (a mixture of AEBSF, pepstatin A, E-64, bestain, leupeptin, and aprotinin) was purchased from Sigma-Aldrich (St. Louis, MO, USA). Enzyme-linked immunosorbent assay (ELISA) kits for Aβ40 and Aβ42 were obtained from IBL (Kunma, Japan). All chemicals and solvents used were reagent grade, purchased from commercial sources, and used as received.
The inhibitory activities of pterosin derivatives against cholinesterases were measured using the method developed by Ellman et al.[32]. The reaction mixture contained 140 μL of sodium phosphate buffer (pH 8.0), 20 μL of test sample solution (final concentration of the compound 100 μM), and 20 μL of AChE or BChE solution, mixed and incubated for 15 min at room temperature. […] The reactions were initiated following the addition of 10 μL of DTNB and 10 μL of acetyl thiocholine iodide for the AChE assay or butyryl thiocholine chloride for the BChE assay in 96-well microplates, which were incubated for 15 min.

in vitro = in vitro ADME; conditions: for BBB permeation class: classified by Pe, given in words
Description: PAMPA (parallel artificial membrane permeation assay) was used as a high-throughput assay to predict BBB permeation. Porcine polar brain lipid (PBL) was used as an artificial membrane to predict BBB permeation. Initially, the test compound was dissolved in DMSO at 5 mg/mL. This compound stock solution (10 µL) was diluted 200-fold in a universal buffer at pH 7.4 and mixed with a multi 8-channel pipette to obtain the secondary stock solution (final concentration 25 µg/mL). The secondary stock solution (200 µL) was placed in the donor wells. The filter membrane was coated with PBL in dodecane (4 mL volume of 20 mg/mL PBL in dodecane), and 5 µL of BBB-1 lipid solution was spread on PBL by pipette. The acceptor well was filled with […] of Acceptor Sink Buffer. The acceptor filter plate was cautiously positioned on the donor plate to assemble a “sandwich” (comprising an aqueous acceptor, artificial lipid membrane and aqueous donor with test compound on the top, middle and bottom, respectively). The test compound diffuses from the donor well to the acceptor well through the lipid membrane. After 4 h of incubation at pH 7.4 and 25 °C, the concentration of the compound in the acceptor, donor, reference and blank wells was estimated with a UV plate reader, Epoch Microplate Spectrophotometer (BioTek Instruments, Inc., Winooski, VT, USA). […] Samples were analyzed in quadruplets, and the average of the four runs was reported. To monitor the consistency of the analysis set, quality control standards were run with each sample set.
PAMPA-BBB, an in vitro artificial membrane permeability assay for the BBB, is one of the most reliable physicochemical screening tools in the early stage discovery of CNS-targeted drugs. The PAMPA-BBB system models the transcellular passive diffusion of chemicals across the BBB and measures strictly passive transport mechanisms via an artificial lipid membrane on effective permeability (Pe, cm/s).

Structure (SMILES) | LD50 Based on MTT Assay, NIH3T3 [1] | LD50 Based on MTT Assay, B16F10 (B16F10 mouse melanoma) | Ki [2] | Inhibition type BACE1 [2] | Ki (horse serum BChE [3]) | Inhibition type BChE (horse serum BChE [3]) | LD50 Based on MTT Assay, SY-SY5Y [4] | IC50 (horse serum BChE [5]) | BChE-inhibitory activity fold lower than berberine (horse serum BChE [5]; ratio of IC50) | Pe fold higher than verapamil (in vitro; PAMPA-BBB) | BBB permeation class (in vitro; PAMPA-BBB) | Pe fold higher than quercetin (in vitro; from log Pe −4.22 versus literature log Pe of quercetin) | Pe fold higher than berberine (in vitro; from log Pe −4.22 versus log Pe −5.8 of berberine) | Papp at 4 h, 25 µg/mL (in vitro; pig, PAMPA, 4 h, pH 7.4, 25 °C, mean ± SD of quadruple experiments, read-out: PAMPA-BBB permeability Pe) | Ki ([2]; determined by Dixon plot, read-out: Ki BACE1) | Ki (horse serum BChE [3]; determined by Dixon plot, read-out: Ki BChE) | IC50 (horse serum BChE [5]; mean ± S.D. of three experiments, read-out: IC50 BChE)
Cc1cc2c(c(C)c1CCO)C(=O)[C@H](C)C2 [(2R)-Pterosin B, (2R)-pterosin B] | >5,000 µM | >5,000 µM | 38.3 µM | Noncompetitive | 53.5 µM | Noncompetitive | >5,000 µM | 48.1 ± 0.59 µM | ~15 fold | 1.7 fold | high BBB permeation | approximately 600 fold | approximately 37 fold | 60.3 ± 9.8 ×10⁻⁶ cm/s | – | – | –
Cc1cc2c(c(C)c1CCOC1OC(CO)C(O)C(O)C1O)C(=O)C(C)C2O [(2R,3R)-Pteroside C, (2R,3R)-pteroside C] | >5,000 µM | >5,000 µM | – | Mixed-type | – | Mixed-type | >5,000 µM | – | – | – | very low BBB permeability | – | – | – | 12.6 µM | 9.62 µM | 5.29 ± 0.82 µM
